According to patent US10189843B2, “Fused pyrazole derivative having autotaxin inhibitory activity” (The University of Tokyo, priority 2014, dated 2019):

Target: T1, Human autotaxin enzyme (Homo sapiens, UniProt Q13822)
T1 construct: purchased R&D System
Test: Evaluation of autotaxin inhibitor, Method C (18:0 Lyso PC substrate, choline assay, Resorufin fluorescence)
Type: biochemical
Details: Method C (Test Example 3), read-out: Inhibitory activity (enzyme inhibitory activity, IC50)
Procedure: Test Example 3 (Method C) Evaluation of Autotaxin Inhibitor
Solution B containing 100 mM Tris-HCl buffer (pH7.5), 150 mM NaCl, 5 mM MgCl2, and 0.05% Triton X-100 was prepared. Human autotaxin enzyme (purchased from R&D System) was diluted with Solution B, and 2.5 μl of which was added to a solution of test compound in DMSO. Furthermore, 2.5 μl of 200 μM 18:0 Lyso PC (purchased from Avanti Polar Lipids) in Solution B was added and allowed to react at room temperature for 2 hours. After completion of the reaction, 15 μl of the coline assay reagent (100 mM Tris-HCl buffer (pH7.5), 5 mM MgCl2, 77 μg/ml coline oxidase, 10 μg/ml peroxydase, 25 μM 10-acetyl-3,7-dihydroxyphenoxazine, and excess autotaxin inhibitor) was added and allowed to react at room temperature for 20 minutes. The fluorescent dye Resorufin, which was produced by the reaction, was detected. The fluorescence was detected using ViewLux (PerkinElmer, Inc.) with a excitation wavelength of 531 nm and a fluorescence wavelength of 598 nm.
The percent inhibition of the test compound was calculated by assuming the sample with no test compound as 0% inhibition and the sample with no enzyme as 100% inhibition, and the percent inhibitions at different concentrations of the test compound were plotted to obtain a concentration-dependent curve.

Row | Structure (SMILES) | IC50 [µM]
1 | CCCCCC1CN(Cc2cncc(C(=O)O)c2)C(=O)c2cc(-c3ccc(Cl)cc3)nn21 (centres unmarked) [Compound I-0185] | 0.01 to 0.1
2 | C[C@H]1CN(CC(=O)N(C)CCC#N)C(=O)c2cc(-c3ccc(C#N)cc3NC(=O)CF)nn21 [Compound I-0353] | < 0.01
3 | CCCCC1CN(Cc2ccc(C#N)cc2)C(=O)c2cc(N3CCC(C(F)(F)F)CC3)nn21 (centres unmarked) [Compound I-0305] | 0.1 to 1
4 | CCCCC1CN(CC(=O)NCc2cc(=O)[nH]o2)C(=O)c2cc(-c3ccc(Cl)cc3)nn21 (centres unmarked) [Compound I-0233] | 0.01 to 0.1
5 | CCCOCC1CN(CC(=O)NC2(CC#N)CC2)C(=O)c2cc(-c3ccc(Cl)cc3)nn21 (centres unmarked) [Compound I-0251] | 0.1 to 1
6 | CCCCC1CN(CC(=O)OC(C)(C)C)C(=O)c2cc(-c3ccc(Cl)cc3)nn21 (centres unmarked) [Compound I-0283] | 0.1 to 1
7 | CCCCCC1CN(CC(=O)NCCC(=O)O)C(=O)c2cc(-c3ccc(Cl)cc3)nn21 (centres unmarked) [Compound I-0044] | 0.01 to 0.1
8 | CCCCCC1CN(CC(=O)N2CCCC(CO)C2)C(=O)c2cc(-c3ccc(Cl)cc3)nn21 (centres unmarked) [Compound I-0089] | 0.01 to 0.1
9 | CCCCCC1CN(CC(=O)N2CCCC(O)C2)C(=O)c2cc(-c3ccc(Cl)cc3)nn21 (centres unmarked) [Compound I-0092] | 0.1 to 1
10 | CCOC(=O)CN1C(=O)c2cc(-c3ccc(Cl)cc3)nn2[C@H]2CCC[C@H]21 [Compound I-0009] | 0.1 to 1
11 | CCCCC1CN(CC(=O)N2CCN(C(N)=O)CC2)C(=O)c2cc(-c3ccc(Cl)cc3)nn21 (centres unmarked) [Compound I-0217] | 0.1 to 1
12 | CCCCCC1CN(CC(=O)N2CCCC2C(=O)O)C(=O)c2cc(-c3ccc(Cl)cc3)nn21 (centres unmarked) [Compound I-0065] | 0.01 to 0.1
13 | CCCCC1CN(CC(=O)N(CC#N)CC#N)C(=O)c2cc(-c3ccc(Cl)cc3)nn21 (centres unmarked) [Compound I-0211] | 0.01 to 0.1
14 | CCCCCC1CN(CC(=O)N(C)CCN(C)C)C(=O)c2cc(-c3ccc(Cl)cc3)nn21 (centres unmarked) [Compound I-0102] | ≥ 1
15 | CCCCCC1CN(CC(=O)OCC)C(=O)c2cc(-c3ccc(Cl)cc3)nn21 (centres unmarked) [Compound I-0002] | 0.01 to 0.1
16 | CCCCC1CN(CC(=O)NCc2nn[nH]n2)C(=O)c2cc(-c3ccc(Cl)cc3)nn21 (centres unmarked) [Compound I-0232] | 0.01 to 0.1

Row | Structure (SMILES) | IC50 [µM]
17 | CCCCC1CN(CC(=O)N2CCC[C@H]2C)C(=O)c2cc(-c3ccc(Cl)cc3)nn21 (some centres unmarked) [Compound I-0227] | 0.1 to 1
18 | CCCCC[C@@H]1CN(CC(=O)N2CCC(C(=O)O)CC2)C(=O)c2cc(-c3ccc(Cl)cc3)nn21 [Compound I-0313] | < 0.01
19 | CCCCC1CN(CC(=O)NCC(=O)NC)C(=O)c2cc(-c3ccc(Cl)cc3)nn21 (centres unmarked) [Compound I-0224] | 0.1 to 1
20 | CCCCCC1CN(c2ccncc2)C(=O)c2cc(-c3ccc(Cl)cc3)nn21 (centres unmarked) [Compound I-0200] | ≥ 1
21 | CCCCC1CN(CC(=O)N(C)CC#N)C(=O)c2cc(-c3ccc(Cl)cc3)nn21 (centres unmarked) [Compound I-0208] | 0.01 to 0.1
22 | CCCCCC1CN(CNC(C)=O)C(=O)c2cc(-c3ccc(Cl)cc3)nn21 (centres unmarked) [Compound I-0008] | 0.01 to 0.1
23 | CC1(C)CN(CC(=O)N2CCC(C(=O)O)CC2)C(=O)c2cc(-c3ccc(Cl)cc3)nn21 [Compound I-0016] | ≥ 1
24 | CCCCCC1CN(CCO)C(=O)c2cc(-c3ccc(Cl)cc3)nn21 (centres unmarked) [Compound I-0006] | 0.1 to 1
25 | CCCCCC1CN(CC(=O)NC[C@H]2CC[C@H](C(=O)O)CC2)C(=O)c2cc(-c3ccc(Cl)cc3)nn21 (some centres unmarked) [Compound I-0054] | 0.1 to 1
26 | CCCCCC1CN(CC(=O)N2CCCC2CCCC)C(=O)c2cc(-c3ccc(Cl)cc3)nn21 (centres unmarked) [Compound I-0079] | 0.1 to 1
27 | CCCCCC1CN(CC(=O)NCc2ccccc2C(=O)O)C(=O)c2cc(-c3ccc(Cl)cc3)nn21 (centres unmarked) [Compound I-0119] | 0.01 to 0.1
28 | CCCCC1CN(CC(=O)N2[C@H](C)COC[C@@H]2C)C(=O)c2cc(-c3ccc(Cl)cc3)nn21 (some centres unmarked) [Compound I-0223] | 0.1 to 1
29 | CCCCCC1CN(CC(=O)N2CCOCC2)C(=O)c2cc(-c3ccc(Cl)cc3)nn21 (centres unmarked) [Compound I-0101] | 0.1 to 1
30 | CCCCCC1CN(CC(=O)N2CCC(C(=O)NC3(C#N)CC3)CC2)C(=O)c2cc(-c3ccc(Cl)cc3)nn21 (centres unmarked) [Compound I-0295] | 0.01 to 0.1
31 | CCCCCC1CN(CC(=O)NC(Cc2ccccc2)C(=O)O)C(=O)c2cc(-c3ccc(Cl)cc3)nn21 (centres unmarked) [Compound I-0055] | < 0.01

Results, then the compound that gave them:

Row | IC50 [µM] | Structure (SMILES)
32 | 0.1 to 1 | CCCCC1CN(Cc2cncn2C)C(=O)c2cc(-c3ccc(Cl)cc3)nn21 (centres unmarked) [Compound I-0258]
33 | < 0.01 | N#Cc1ccc(CN2CC3CCCCCC(=O)Nc4cc(Cl)ccc4-c4cc(n3n4)C2=O)cc1 (centres unmarked) [Compound I-0355]
34 | ≥ 1 | CCCCNC(=O)CN1C[C@H](C)n2nc(-c3ccc(Cl)cc3)cc2C1=O [Compound I-0153]
35 | 0.1 to 1 | CC(C)Nc1cc(Cl)ccc1-c1cc2n(n1)[C@@H](C)CN(Cc1ccc(C#N)cc1)C2=O [Compound I-0349]
36 | ≥ 1 | CNC(=O)Cc1cc(Cl)ccc1-c1cc2n(n1)[C@@H](C)CN(Cc1ccc(C#N)cc1)C2=O [Compound I-0336]
37 | 0.1 to 1 | CCCCCC1CN(Cc2ccc(S(C)(=O)=O)cc2)C(=O)c2cc(-c3ccc(Cl)cc3)nn21 (centres unmarked) [Compound I-0141]
38 | 0.01 to 0.1 | CC(=O)Nc1cc(C#N)cc(CO)c1-c1cc2n(n1)[C@@H](C)CN(Cc1ccc(C#N)cc1)C2=O [Compound I-0348]
39 | ≥ 1 | CCCCC1CN(Cc2ccc(C#N)cc2)C(=O)c2cc(N(C)Cc3ccc(Cl)cc3)nn21 (centres unmarked) [Compound I-0301]
40 | 0.01 to 0.1 | CC(=O)NC1=C(c2cc3n(n2)[C@@H](C)CN(Cc2ccc(C#N)cc2)C3=O)CCC(C(F)(F)F)C1 (some centres unmarked) [Compound I-0366]
41 | 0.1 to 1 | CCCCC1CN(Cc2ccc(C#N)cc2)C(=O)c2cc(-c3ccc(Cl)cn3)nn21 (centres unmarked) [Compound I-0277]
42 | ≥ 1 | CCCCCC1CN(Cc2cc(C(C)=O)ccc2OC)C(=O)c2cc(-c3ccc(Cl)cc3)nn21 (centres unmarked) [Compound I-0136]
43 | 0.1 to 1 | CCCC(NC(=O)CN1C[C@H](C)n2nc(-c3ccc(Cl)cc3)cc2C1=O)C(=O)O (some centres unmarked) [Compound I-0161]
44 | < 0.01 | CCCCCC1CN(Cc2cccc(C(=O)O)c2)C(=O)c2cc(-c3ccc(Cl)cc3)nn21 (centres unmarked) [Compound I-0148]
45 | 0.1 to 1 | CC(C)OCC1CN(Cc2ccc(C#N)cc2)C(=O)c2cc(-c3ccc(Cl)cc3)nn21 (centres unmarked) [Compound I-0193]
46 | ≥ 1 | CCCCCC1CN(Cc2ccc(OCCCN(C)C)cc2)C(=O)c2cc(-c3ccc(Cl)cc3)nn21 (centres unmarked) [Compound I-0134]
47 | 0.01 to 0.1 | CCCOCC1CN(Cc2ccc(C#N)cc2)C(=O)c2cc(-c3ccc(Cl)cc3)nn21 (centres unmarked) [Compound I-0291]
48 | 0.1 to 1 | N#Cc1ccc(CN2CC(COC(F)(F)C(F)F)n3nc(-c4ccc(Cl)cc4)cc3C2=O)cc1 (centres unmarked) [Compound I-0195]
49 | 0.1 to 1 | CCCCCC1CN(Cc2ccc(C)cc2)C(=O)c2cc(-c3ccc(Cl)cc3)nn21 (centres unmarked) [Compound I-0130]
50 | 0.01 to 0.1 | CCCCC1CN(Cc2ccc(C#N)cc2)C(=O)c2cc(-c3ccc(Cl)cc3)nn21 (centres unmarked) [Compound I-0183]
51 | 0.01 to 0.1 | CCCC1CN(Cc2ccc(C#N)cc2)C(=O)c2cc(-c3ccc(Cl)cc3NC(C)=O)nn21 (centres unmarked) [Compound I-0188]
52 | 0.1 to 1 | C[C@H]1CN(Cc2ccc(C#N)cc2)C(=O)c2cc(-c3c(N)cc(Cl)cc3CO)nn21 [Compound I-0346]
53 | < 0.01 | CC(=O)Nc1cc(C#N)ccc1-c1cc2n(n1)[C@@H](C)CN(Cc1cccc(C(=O)O)c1)C2=O [Compound I-0344]
